Experimental data published in patent US11078170B2 (Assembly Biosciences, Inc., priority 2017, dated 2021).

System: HBV viral production from HepAD38 cells
Experiment: Activity of test compounds on viral production from HepAD38 cells (viral load by qPCR of HBV core sequence in supernatant)
Format: cell-based
Settings: Hepatitis B virus, 120 h, 5 days incubation, HBV DNA in supernatant by qPCR, top concentration 10 μM, read-out: Viral Load EC50 Activity range
Method in brief: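 HepAD38 cells, 50,000/well in tetracycline-free 2% FBS medium, treated 5 days at 37° C. with compound from 10 μM top concentration. HBV DNA in supernatant quantified by TaqMan qPCR of core sequence against DNA standards, relative to DMSO wells; CellTiter-Glo viability read in parallel. EC50/CC50 from four-parameter logistic fit.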

SMILES | EC50
CN1C(C(=O)Nc2ccc(F)c(Cl)c2)CC(c2ccc(C#N)cc2)NS1(=O)=O (racemic) [HBV-CSU-213, Cis-N-(3-chloro-4-fluorophenyl)-5-(4-cyanophenyl)-2-methyl-1,2,6-thiadiazinane-3-carboxamide 1,1-dioxide] | < 1000 nM
COc1ccc(CN2C(C(=O)Nc3ccc(F)c(Cl)c3)CC(c3nccs3)NS2(=O)=O)cc1 (stereo not drawn) [HBV-CSU-108, Cis-N-(3-chloro-4-fluorophenyl)-2-(4-methoxybenzyl)-5-(thiazol-2-yl)-1,2,6-thiadiazinane-3-carboxamide 1,1-dioxide] | > 5000 nM
CN1[C@@H](C(=O)Nc2ccc(F)c(Cl)c2)C[C@@H](c2ccc(-c3c[nH]cn3)s2)NS1(=O)=O [HBV-CSU-331-ISO-II, Cis-5-(5-(1H-imidazol-4-yl)thiophen-2-yl)-N-(3-chloro-4-fluorophenyl)-2-methyl-1,2,6-thiadiazinane-3-carboxamide 1,1-dioxide] | 1000 to 5000 nM
[2H]C1[C@]([2H])(C(=O)Nc2ccc(F)c(Cl)c2)N(C)S(=O)(=O)N[C@]1([2H])c1ccc(-c2cn(C([2H])([2H])[2H])cn2)s1 (stereo in doubt) [HBV-CSU-376-ISO-II, Cis-N-(3-Chloro-4-fluorophenyl)-2-methyl-5-(5-(1-(methyl-d3)-1H-imidazol-4-yl)thiophen-2-yl)-1,2,6-thiadiazinane-3,4,5-d3-3-carboxamide 1,1-dioxide] | 1000 to 5000 nM
CN1C(C(=O)Nc2ccc(F)c(Cl)c2)CC(c2ccc(-c3cn[nH]c3)s2)NS1(=O)=O (stereo not shown) [HBV-CSU-244] | < 1000 nM
COc1ccc(-c2csc([C@H]3C[C@@H](C(=O)Nc4ccc(F)c(Cl)c4)N(C)S(=O)(=O)N3)c2)cc1 [HBV-CSU-241-ISO-I] | < 1000 nM
CN1[C@@H](C(=O)Nc2ccc(F)c(Cl)c2)C[C@H](c2ncc(-c3cn(C)cn3)s2)NS1(=O)=O [HBV-CSU-276-Trans-ISO-I, (3R,5R)-N-(3-chloro-4-fluorophenyl)-2-methyl-5-(5-(1-methyl-1H-imidazol-4-yl)thiazol-2-yl)-1,2,6-thiadiazinane-3-carboxamide 1,1-dioxide] | < 1000 nM
CN1C(C(=O)Nc2cccc(Cl)c2)CC(c2cccs2)NS1(=O)=O (racemic) [HBV-CSU-010, Cis-N-(3-chlorophenyl)-2-methyl-5-(thiophen-2-yl)-1,2,6-thiadiazinane-3-carboxamide 1,1-dioxide] | < 1000 nM
[2H]C([2H])([2H])N1C(C(=O)Nc2ccc(F)c(Cl)c2)CC(c2ccc(-c3cn(C([2H])([2H])[2H])cn3)s2)NS1(=O)=O (stereo not shown) [HBV-CSU-374] | < 1000 nM
CN1C(C(=O)Nc2ccc(F)c(Cl)c2)CC(c2cccnc2)NS1(=O)=O (stereo not drawn) [HBV-CSU-033, Cis-N-(3-Chloro-4-fluorophenyl)-2-methyl-5-(pyridin-3-yl)-1,2,6-thiadiazinane-3-carboxamide 1,1-dioxide] | < 1000 nM
CN1[C@@H](C(=O)Nc2ccc(F)c(Cl)c2)C[C@@H](c2ncc(-c3ccc(NS(C)(=O)=O)cc3)s2)NS1(=O)=O (relative stereo) [HBV-CSU-179, Cis-N-(3-Chloro-4-fluorophenyl)-2-methyl-5-(5-(4-(methylsulfonamido)phenyl)thiazol-2-yl)-1,2,6-thiadiazinane-3-carboxamide 1,1-dioxide] | < 1000 nM
CN1[C@H](C(=O)Nc2ccc(F)c(Cl)c2)C[C@H](c2ncc(-c3ccccn3)s2)NS1(=O)=O [HBV-CSU-176-ISO-I, Cis-N-(3-chloro-4-fluorophenyl)-2-methyl-5-(5-(pyridin-2-yl)thiazol-2-yl)-1,2,6-thiadiazinane-3-carboxamide 1,1-dioxide] | < 1000 nM
COCCN1[C@@H](C(=O)Nc2ccc(F)c(Cl)c2)C[C@@H](c2ccc(F)cc2)NS1(=O)=O [HBV-CSU-210-ISO-I, Cis-N-(3-Chloro-4-fluorophenyl)-5-(4-fluorophenyl)-2-(2-methoxyethyl)-1,2,6-thiadiazinane-3-carboxamide 1,1-dioxide] | > 5000 nM
